{"source": "patent US4582823A", "about": "“Method for treating schizophrenia and medicaments therefor” (Warner-Lambert Company, priority 1984, dated 1986)", "key": {"[1]": {"test_system": "haloperidol-induced dystonia in Cebus monkeys", "conditions": "for # showing dystonia/Total: time 0", "method": "(§1) On test days, animals were given N^6 -(2,2-diphenylethyl)adenosine before or after haloperidol. Drugs were prepared as suspensions in 0.2% Methocel for oral and IP injection. Solutions for IM injections of haloperidol were made using lactic acid and of the adenosine using ethanol."}, "[2]": {"test_system": "haloperidol-induced dystonia in Cebus monkeys", "experiment": "Attempted reversal of haloperidol-induced dystonia in sensitized Cebus monkeys", "assay_type": "in vivo, Cebus monkeys (Cebus appella)", "conditions": "for # Reversed/Total: adenosine 8 mpk IM", "method": "as §1"}, "[3]": {"test_system": "haloperidol-induced dystonia in Cebus monkeys", "experiment": "Effect of N^6-(2,2-diphenylethyl)adenosine and haloperidol given together orally (capsule or gavage) on dystonia in Cebus monkeys", "conditions": "for # showing dystonia/Total: time 0, haloperidol 0.5 PO capsule", "method": "as §1"}, "Sprague-Dawley male rats": {"test_system": "Sprague-Dawley male rats", "experiment": "rat locomotor activity (darkened actophotometer, 30 minutes)", "assay_type": "in vivo", "conditions": "for Locomotor Activity, % Of Control ± SEM: 1 hr before test", "experimental": "Sprague-Dawley male rats were used.\nEach animal was then placed in a darkened actophotometer and locomotor activity was recorded automatically by a microcomputer for 30 minutes. Locomotor activity data were compared to the mean response of vehicle treated control and were expressed as percentage of activity relative to control."}}, "note": "Entries after “also recorded” stand apart in the source; their conditions may differ. Read-outs that look alike come from different tables or passages of the source.", "data": [{"smiles": "OC[C@H]1O[C@@H](n2cnc3c(NCC(c4ccccc4)c4ccccc4)ncnc32)[C@H](O)[C@@H]1O", "note": "[N^6-(2,2-Diphenylethyl)adenosine]", "values": [{"measurement": "animals in which haloperidol-induced dystonia was not blocked", "setting": "[1]; Cebus monkey, adenosine 8 mg/kg IM, haloperidol 0.5 mg/kg PO", "result": "3/6"}, {"measurement": "blocking of haloperidol-induced dystonia by IM route (in words)", "setting": "[1]; Cebus monkey, adenosine IM versus other routes", "result": "less effective in blocking haloperidol-induced dystonia than when administered by other routes"}, {"measurement": "intensity of dystonia in animals displaying dystonia after combined treatment", "setting": "[1]; Cebus monkey, adenosine IP + haloperidol, relative to absence of the adenosine", "result": "less intense than those seen in the absence of the adenosine"}, {"measurement": "prevention of development of dystonia (in words)", "setting": "[1]; Cebus monkey, adenosine IP together with haloperidol PO", "result": "prevented the development of dystonia in a dose dependent fashion"}, {"measurement": "# showing dystonia/Total", "setting": "[1]; adenosine 0.5 mpk IP, haloperidol 0.5 mpk PO", "result": "5/5"}, {"measurement": "# showing dystonia/Total", "setting": "[1]; adenosine 1.5 mpk IP, haloperidol 0.5 mpk PO", "result": "4/6"}, {"measurement": "# showing dystonia/Total", "setting": "[1]; adenosine 5 mpk IP, haloperidol 0.05 mpk IM, +30 Min.", "result": "0/6"}, {"measurement": "# showing dystonia/Total", "setting": "[1]; adenosine 5 mpk IP, haloperidol 0.5 mpk PO", "result": "1/6"}, {"measurement": "# showing dystonia/Total", "setting": "[1]; adenosine 20 mpk IP, haloperidol 0.05 mpk IM, +30 Min.", "result": "0/6"}, {"measurement": "# showing dystonia/Total", "setting": "[1]; adenosine 20 mpk IP, haloperidol 0.5 mpk PO", "result": "0/6"}, {"measurement": "depression induced by the adenosine", "setting": "[1]; monkey, in vivo", "result": "induced depression prior to the expected time of onset of the effects of haloperidol"}, {"measurement": "onset of action (depression)", "setting": "[1]; monkey, in vivo, ip", "result": "5 to 10", "unit": "min"}, {"measurement": "prevention of dystonia (conclusion)", "setting": "[1]; sensitized Cebus monkeys, adenosine administered prior to haloperidol", "result": "prevented the dystonia normally produced by haloperidol"}, {"measurement": "effect on severity of established dystonia", "setting": "[2]; Cebus monkey, adenosine 8 mpk IM after dystonias induced by haloperidol (IM or PO)", "result": "no effect on the severity of dystonia"}, {"measurement": "reversal of ongoing dystonia (conclusion)", "setting": "[2]; Cebus monkey, adenosine IM", "result": "did not reverse ongoing dystonia induced by haloperidol"}, {"measurement": "# Reversed/Total", "setting": "[2]; +30 Min. after haloperidol 0.05 IM", "result": "0/6"}, {"measurement": "# Reversed/Total", "setting": "[2]; +90 Min. after haloperidol 0.5 PO", "result": "0/6"}, {"measurement": "effect on development or severity of dystonias (in words)", "setting": "[3]; Cebus monkey, adenosine together with haloperidol orally by capsule", "result": "did not appreciably affect the development or severity of dystonias"}, {"measurement": "animals with marked reduction in the severity of dystonia", "setting": "[3]; adenosine 5 mg/kg PO + haloperidol 0.5 mg/kg in a solution by gavage", "result": "4 of 5"}, {"measurement": "# showing dystonia/Total", "setting": "[3]; adenosine 5 mpk PO capsule", "result": "5/6"}, {"measurement": "prevention of dystonia, same capsule (conclusion)", "setting": "[3]; adenosine and haloperidol in the same capsule", "result": "did not prevent dystonia induced by haloperidol"}, {"measurement": "monkeys with dystonia", "setting": "[3]; haloperidol 0.5 mg/kg with adenosine 5 mg/kg in a capsule", "result": "5 of 6"}, {"measurement": "severity of dystonia, gavage (conclusion)", "setting": "[3]; solution of adenosine and haloperidol by gavage", "result": "reduced severity of dystonia"}, {"measurement": "effect on haloperidol induced inhibition of rat locomotor activity (conclusion)", "setting": "Sprague-Dawley male rats; combination with haloperidol", "result": "enhanced haloperidol induced inhibition of rat locomotor activity; also recorded: additive effect in combination with haloperidol"}, {"measurement": "Locomotor Activity, % Of Control ± SEM", "setting": "Sprague-Dawley male rats; oral, adenosine 1 mg/kg + HPD 0.1 mg/kg, n=9", "result": "92.0 ± 2.8", "unit": "% Of Control"}, {"measurement": "Locomotor Activity, % Of Control ± SEM", "setting": "Sprague-Dawley male rats; oral, adenosine 1 mg/kg + HPD 0.3 mg/kg, n=9", "result": "40.7 ± 4.9", "unit": "% Of Control"}, {"measurement": "Locomotor Activity, % Of Control ± SEM", "setting": "Sprague-Dawley male rats; oral, adenosine 1 mg/kg + HPD 1.0 mg/kg, n=9", "result": "10.8 ± 2.6", "unit": "% Of Control"}, {"measurement": "Locomotor Activity, % Of Control ± SEM", "setting": "Sprague-Dawley male rats; oral, adenosine 1 mg/kg + Vehicle 5 ml/kg, n=9", "result": "93.8 ± 8.9", "unit": "% Of Control"}, {"measurement": "Locomotor Activity, % Of Control ± SEM", "setting": "Sprague-Dawley male rats; oral, adenosine 3 mg/kg + HPD 0.1 mg/kg, n=8", "result": "49.1 ± 10.0", "unit": "% Of Control"}, {"measurement": "Locomotor Activity, % Of Control ± SEM", "setting": "Sprague-Dawley male rats; oral, adenosine 3 mg/kg + HPD 0.3 mg/kg, n=17", "result": "21.6 ± 5.0", "unit": "% Of Control"}, {"measurement": "Locomotor Activity, % Of Control ± SEM", "setting": "Sprague-Dawley male rats; oral, adenosine 3 mg/kg + HPD 1.0 mg/kg, n=17", "result": "9.8 ± 2.1", "unit": "% Of Control"}, {"measurement": "Locomotor Activity, % Of Control ± SEM", "setting": "Sprague-Dawley male rats; oral, adenosine 3 mg/kg + HPD 3.0 mg/kg, n=9", "result": "4.3 ± 1.3", "unit": "% Of Control"}, {"measurement": "Locomotor Activity, % Of Control ± SEM", "setting": "Sprague-Dawley male rats; oral, adenosine 3 mg/kg + Vehicle 5 ml/kg, n=17", "result": "58.7 ± 5.2", "unit": "% Of Control"}, {"measurement": "alteration of haloperidol-induced inhibition of spontaneous locomotion", "setting": "Sprague-Dawley male rats; oral, adenosine 1.0 mg/kg + haloperidol", "result": "did not significantly alter the dose-related inhibition of spontaneous locomotion caused by haloperidol"}, {"measurement": "enhancement of haloperidol locomotor inhibition", "setting": "Sprague-Dawley male rats; oral, adenosine 3.0 mg/kg + haloperidol 0.1 and 0.3 mg/kg", "result": "enhanced the locomotor inhibition"}, {"measurement": "alteration of locomotion", "setting": "Sprague-Dawley male rats; oral, adenosine alone 1.0 mg/kg", "result": "did not significantly alter locomotion"}, {"measurement": "reduction of locomotion", "setting": "Sprague-Dawley male rats; oral, adenosine alone 3.0 mg/kg", "result": 50, "unit": "%"}]}, {"smiles": "O=C(CCCN1CCC(O)(c2ccc(Cl)cc2)CC1)c1ccc(F)cc1", "note": "[Haloperidol, reference compound]", "values": [{"measurement": "dystonic reactions in sensitized monkeys", "setting": "[1]; Cebus monkey, haloperidol 0.2 mpk PO", "result": "dystonic reactions were consistently manifest"}, {"measurement": "# showing dystonia/Total", "setting": "[1]; adenosine 0 mpk IP, haloperidol 0.05 mpk IM, +30 Min.", "result": "5/5"}, {"measurement": "onset of action (dystonia)", "setting": "[1]; monkey, in vivo", "result": "3 to 7", "unit": "min"}, {"measurement": "onset of action (dystonia)", "setting": "[1]; monkey, in vivo, po", "result": "60 to 180", "unit": "min"}, {"measurement": "monkeys with dystonia", "setting": "[3]; haloperidol alone 0.5 mg/kg in a capsule", "result": "5 of 5"}, {"measurement": "# showing dystonia/Total", "setting": "[3]; no adenosine", "result": "5/5"}, {"measurement": "Locomotor Activity, % Of Control ± SEM", "setting": "Sprague-Dawley male rats; oral, Vehicle 5 ml/kg + HPD 0.1 mg/kg, n=8 (run with 3 mg/kg adenosine)", "result": "80.4 ± 10.2", "unit": "% Of Control"}, {"measurement": "Locomotor Activity, % Of Control ± SEM", "setting": "Sprague-Dawley male rats; oral, Vehicle 5 ml/kg + HPD 0.1 mg/kg, n=9 (run with 1 mg/kg adenosine)", "result": "108.6 ± 8.6", "unit": "% Of Control"}, {"measurement": "Locomotor Activity, % Of Control ± SEM", "setting": "Sprague-Dawley male rats; oral, Vehicle 5 ml/kg + HPD 0.3 mg/kg, n=9 (run with 1 mg/kg adenosine)", "result": "46.0 ± 7.2", "unit": "% Of Control"}, {"measurement": "Locomotor Activity, % Of Control ± SEM", "setting": "Sprague-Dawley male rats; oral, Vehicle 5 ml/kg + HPD 0.3 mg/kg, n=17 (run with 3 mg/kg adenosine)", "result": "44.0 ± 4.5", "unit": "% Of Control"}, {"measurement": "Locomotor Activity, % Of Control ± SEM", "setting": "Sprague-Dawley male rats; oral, Vehicle 5 ml/kg + HPD 1.0 mg/kg, n=9 (run with 1 mg/kg adenosine)", "result": "21.8 ± 2.9", "unit": "% Of Control"}, {"measurement": "Locomotor Activity, % Of Control ± SEM", "setting": "Sprague-Dawley male rats; oral, Vehicle 5 ml/kg + HPD 1.0 mg/kg, n=17 (run with 3 mg/kg adenosine)", "result": "18.0 ± 2.5", "unit": "% Of Control"}, {"measurement": "Locomotor Activity, % Of Control ± SEM", "setting": "Sprague-Dawley male rats; oral, Vehicle 5 ml/kg + HPD 3.0 mg/kg, n=9 (run with 3 mg/kg adenosine)", "result": "8.2 ± 2.1", "unit": "% Of Control"}]}]}
